We go through 3 compounds from patent US11530181B2, “IL-6 inhibitors and methods of treatment” (University of Florida Research Foundation, Incorporated, priority 2018, dated 2022).

Usually Kd stands for the free concentration of one partner at which half of the binding sites on the other are occupied at equilibrium, for simple one-to-one binding. A higher Kd goes with lower affinity.

One assay deals with T1, gp130-D1-D3 (Homo sapiens, UniProt P40189).
T1 construct: residues 1-301, the numbering system is based on PDB 3L5H, which is the mature form of gp130; tandem TFH purification tag (includes FLAG, as purified on anti-FLAG M2 agarose) (C); made in house; host or cells: Hi5 insect cells (baculovirus; virus generated in sf9)
T1 sequence (P40189 23-323): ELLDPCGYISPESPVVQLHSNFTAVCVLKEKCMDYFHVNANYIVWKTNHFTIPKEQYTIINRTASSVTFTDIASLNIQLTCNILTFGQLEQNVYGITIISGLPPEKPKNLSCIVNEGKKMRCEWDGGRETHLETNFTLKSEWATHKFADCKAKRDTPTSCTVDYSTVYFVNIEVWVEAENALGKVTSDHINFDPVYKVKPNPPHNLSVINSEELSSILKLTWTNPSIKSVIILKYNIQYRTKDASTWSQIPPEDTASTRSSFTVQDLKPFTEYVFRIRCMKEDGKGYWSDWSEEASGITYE
In words: SPR direct binding to immobilized gp130-D1-D3 (CM5 chip). The conditions noted are these: for Kd: SPR, gp130-D1-D3, linear regression at low concentrations, 25% Rmax; for ΔGexp: experimental binding energy from SPR KD.

Assay [1] concerns INF-γ induced STAT1 phosphorylation. In words: Western blot, INF-γ induced STAT1 phosphorylation in MCF7. It is filed as cell-based, human. The conditions noted are these: MCF7, pre-treatment 2, 3 and 4 hours. On the procedure: (§1) Cells were harvested and lysed in cold radioimmunoprecipitation assay (RIPA) lysis buffer containing proteasome inhibitor cocktail and phosphatase inhibitor cocktail. The protein concentrations were determined using the BCA Protein Assay kit. After adding the loading buffer and boiling at 95° C. for 10 minutes, equivalent amounts of proteins were loaded on and separated by SDS-PAGE, and then were transferred to PVDF membranes. Membranes were probed with primary antibodies (1:1000) against phospho-STAT3 (Tyr705), STAT3, phospho-STAT1 (Tyr701), STAT1, phospho-STAT6 (Tyr 641), STAT6, and GAPDH, respectively, and horseradish peroxidase (HRP)-conjugated secondary antibody (1:10000) (Cell Signaling Technology, Beverly, Mass.). Membranes were analyzed using Enhanced Chemiluminescence Plus reagents and either scanned with the Storm Scanner (Amersham Pharmacia Biotech, Inc., Piscataway, N.J.) or imaged with ChemiDoc MP imaging system (Bio-Rad, Hercules, Calif.). […] The cells were harvested after 30 minutes and analyzed by Western blot.
(§2) MCF7 breast cancer cells were seeded in 10 cm plates (1 million cells per plate) and allowed to adhere overnight. […] The cells were harvested after 30 minutes and analyzed by western blotting.
(Immunoblotting shows a protein as a band on a membrane.)

In assay [2] the test system is IL-4 induced STAT6 phosphorylation. In words: Western blot, IL-4 induced STAT6 phosphorylation in MCF7. The conditions noted are these: MCF7, pre-treatment 2, 3 and 4 hours. In kind it is cell-based, human. Here is the method:
as §1, §2

In assay [3] the test system is LIF induced STAT3 phosphorylation. In words: Western blot, LIF induced STAT3 phosphorylation in MCF7. It is filed as cell-based, human. Here is the method: as §1, §2
In assay [4] the test system is STAT3 phosphorylation in SUM159 cells. In words: Western blot, STAT3 phosphorylation in SUM159 (IL-6 autocrine). It is filed as cell-based, human. The conditions noted are these: SUM159, 1-4 μM, 16 h. Here is the method:
as §1
BxPC-3 and SUM159 cells were seeded in 10 cm plates (1 million cells per plate) and allowed to adhere overnight. […] Then cells were harvested and analyzed by western blotting.
SUM159 cells were seeded in 10 cm plates (1 million cells per plate) and allowed to adhere overnight. […] Then cells were harvested and analyzed by western blotting.

At gp130-D1-D3, `O=C(Nc1ccccc1-c1ccn[nH]1)c1ccc(OCCN2CCCCC2)cc1` [LLM418, N-(2-(1H-pyrazol-5-yl)phenyl)-4-(2-(piperidin-1-yl)ethoxy)benzamide] came in with a Kd of 20.5 µM and a ΔGexp of -6.39 kcal/mol. Further, the “effect on STAT1 phosphorylation” value in assay [1] is on record as “little effect”. Moreover, in assay [2], the “effect on STAT6 phosphorylation” value is “little effect”. Further, in assay [3] (MCF7, 4 μM), the “inhibition of LIF induced STAT3 phosphorylation” value is “very little inhibitory effect”. In addition, the “inhibition of STAT3 phosphorylation” value in assay [4] is on record as “stronger inhibition than LLM414”.

For the compound `O=C(Nc1cc(F)ccc1-n1cccc1)c1ccc(OCCCN2CCCCC2)cc1` [LLM4, N-(5-fluoro-2-(1H-pyrrol-1-yl)phenyl)-4-(3-(piperidin-1-yl)propoxy)benzamide], the “effect on INF-γ induced STAT1 phosphorylation” value in assay [1] (15 μM) is on record as “no effect”. For the same compound, the “effect on IL-4 induced STAT6 phosphorylation” value in assay [2] (15 μM) was “no effect”. Moreover, in assay [3] (MCF7, 15 μM, 2, 3 and 4 hours), the “LIF induced STAT3 phosphorylation” value is on record as “remain intact”.

Take `O=C(Nc1cccc(OCCN2CCCCC2)c1)Nc1cccc(-c2ccn[nH]2)c1` [LLM414, 1-(3-(1H-pyrazol-5-yl)phenyl)-3-(3-(2-(piperidin-1-yl)ethoxy)phenyl)urea]: at gp130-D1-D3, the Kd is 15.6 µM and the ΔGexp is -6.55 kcal/mol. The “inhibition of STAT3 phosphorylation” value in assay [4] is recorded as “inhibited STAT3 phosphorylation in SUM159 cells”.
